US4168317A, “Amino derivatives of 4-hydroxy-1,2-benzisothiazole” (BASF Aktiengesellschaft, priority 1977, dated 1979)
Structures can show the parent of a compound that is named as a salt.

How the values were obtained:
in vivo = details: mouse; for LD50 at 24 h: ip
Experimental: The acute toxicity was determined on groups of 10 or 20 female Swiss mice weighing 20-26 g, the compounds being administered intraperitoneally.

cardiac β1-receptors = molecular target: T1, cardiac β1-receptors (Rattus norvegicus, UniProt P18090); experiment: β1-sympatholytic action: inhibition of Isoproterenol tachycardia, pithed rats; assay type: in vivo, rats (Sprague-Dawley; details: for β1-Sympatholytic action R.A. (relative activity): Propranolol = 1.00, pithed rats, intravenous; for ED50: rat, iv, 5 min, read-out: β1-Sympatholytic action ED 50 (dose which inhibits the Isoproterenol tachycardia by 50%); for cardiac β1-receptors blocked at doses lower than those required to block β2-receptors / β1-sympatholytic activity greater than that of Propranolol: rats
T1 construct: in pithed rats (Sprague-Dawley, Mus rattus; weight 230-280 g) causes increases in pulse rate; from tissue; host or cells: heart in the living pithed Sprague-Dawley rat (in vivo)

[1] = molecular target: T2, β2-receptors on the blood vessels (Rattus norvegicus, UniProt P10608); experiment: β2-sympatholytic action: inhibition of Isoproterenol blood pressure reduction, rats under urethane narcosis; assay type: in vivo; details: for β2-Sympatholytic action R.A. (relative activity): Propranolol = 1.00, intravenous; for Q: quotient defined in footnote 6 (drawing 8), cardioselectivity, β2 versus β1 dose; for ED50: rat, iv, read-out: β2-Sympatholytic action ED 50 (dose which inhibits the Isoproterenol blood pressure reduction by 50%)
T2 construct: was tested on rats, weighing 230-280 g, under urethane narcosis; from tissue; host or cells: blood vessels in the living rat under urethane narcosis (in vivo)
T2 sequence (P10608 whole entry): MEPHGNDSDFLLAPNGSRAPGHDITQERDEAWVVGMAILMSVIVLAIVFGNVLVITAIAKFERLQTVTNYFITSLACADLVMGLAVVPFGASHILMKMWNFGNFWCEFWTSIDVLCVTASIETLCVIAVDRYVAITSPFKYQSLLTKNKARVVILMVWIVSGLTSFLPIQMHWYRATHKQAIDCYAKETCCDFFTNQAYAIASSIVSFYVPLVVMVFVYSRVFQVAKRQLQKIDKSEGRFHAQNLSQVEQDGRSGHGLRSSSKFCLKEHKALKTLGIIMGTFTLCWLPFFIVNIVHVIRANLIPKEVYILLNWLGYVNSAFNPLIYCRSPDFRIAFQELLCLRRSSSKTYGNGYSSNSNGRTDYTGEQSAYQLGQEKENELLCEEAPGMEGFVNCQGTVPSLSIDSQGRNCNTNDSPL

T1 sequence (P18090 whole entry): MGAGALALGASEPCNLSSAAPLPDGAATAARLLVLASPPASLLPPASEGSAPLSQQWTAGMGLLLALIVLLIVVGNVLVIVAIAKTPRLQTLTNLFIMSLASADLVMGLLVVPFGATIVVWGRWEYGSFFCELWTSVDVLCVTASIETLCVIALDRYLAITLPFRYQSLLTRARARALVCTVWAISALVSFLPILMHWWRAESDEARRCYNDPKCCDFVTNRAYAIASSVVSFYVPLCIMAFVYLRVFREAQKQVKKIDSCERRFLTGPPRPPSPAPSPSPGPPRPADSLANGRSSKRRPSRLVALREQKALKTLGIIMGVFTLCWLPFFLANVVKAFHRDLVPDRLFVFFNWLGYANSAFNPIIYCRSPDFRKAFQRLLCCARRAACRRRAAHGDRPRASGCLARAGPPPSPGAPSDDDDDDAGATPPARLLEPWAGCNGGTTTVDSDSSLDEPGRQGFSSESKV

Structure (SMILES): CC(C)NCC(O)COc1cccc2sncc12 (stereo not drawn) [Example 1, 4-(2-hydroxy-3-isopropylaminopropoxy)-1,2-benzisothiazole hydrochloride]
- Therapeutic range, absolute (in vivo): 32,700
- Therapeutic range, relative (in vivo): 3.72
- LD50 at 24 h (in vivo): 62100 µg/kg
- β1-Sympatholytic action R.A. (relative activity) (cardiac β1-receptors): 6.47
- ED50 (cardiac β1-receptors): 1.9 µg/kg
- cardiac β1-receptors blocked at doses lower than those required to block β2-receptors (cardiac β1-receptors): 2 times
- β2-Sympatholytic action R.A. (relative activity) ([1]; rats under urethane narcosis): 2.71
- Q [1]: 2.21
- ED50 [1]: 4.2 µg/kg

Structure (SMILES): CC(C)(C)NCC(O)COc1cccc2sncc12 (stereo not drawn) [Example 2, 4-(2-hydroxy-3-tert.-butylamino-propoxy)-1,2-benzisothiazole hydrochloride]
- Therapeutic range, absolute (in vivo): 94,500
- Therapeutic range, relative (in vivo): 10.76
- LD50 at 24 h (in vivo): 154000 µg/kg
- β1-Sympatholytic action R.A. (relative activity) (cardiac β1-receptors): 7.55
- ED50 (cardiac β1-receptors): 1.63 µg/kg
- β2-Sympatholytic action R.A. (relative activity) ([1]; rats under urethane narcosis): 2.84
- Q [1]: 2.47
- ED50 [1]: 4.02 µg/kg

Structure (SMILES): CCC(C)NCC(O)COc1cccc2sncc12 (stereo not drawn) [Example 14, 4-(2-Hydroxy-3-sec.-butylamino-propoxy)-1,2-benzisothiazole]
- Therapeutic range, relative (in vivo): 7.18
- selectivity ratio (in vivo): 63000
- LD50 at 24 h (in vivo): 96400 µg/kg
- β1-Sympatholytic action R.A. (relative activity) (cardiac β1-receptors): 8.04
- ED50 (cardiac β1-receptors): 1.53 µg/kg
- β1-sympatholytic activity greater than that of Propranolol (cardiac β1-receptors): 8 times
- β2-Sympatholytic action R.A. (relative activity) ([1]; rats under urethane narcosis): 1.08
- Q [1]: 6.93
- ED50 [1]: 10.6 µg/kg

Structure (SMILES): CCC(C)(C)NCC(O)COc1cccc2sncc12 (stereo not drawn) [Example 15, 4-[2-Hydroxy-3-(2-methyl-butyl-2-amino)-propoxy]-1,2-benzisothiazole]
- Therapeutic range, relative (in vivo): 8.92
- selectivity ratio (in vivo): 78300
- LD50 at 24 h (in vivo): 144000 µg/kg
- β1-Sympatholytic action R.A. (relative activity) (cardiac β1-receptors): 6.68
- ED50 (cardiac β1-receptors): 1.84 µg/kg
- β2-Sympatholytic action R.A. (relative activity) ([1]; rats under urethane narcosis): 1.38
- Q [1]: 4.48
- ED50 [1]: 8.24 µg/kg

Structure (SMILES): CCC(C)(CC)NCC(O)COc1cccc2sncc12 (stereo not drawn) [Example 16, 4-[2-Hydroxy-3-(3-methyl-pentyl-3-amino)-propoxy]-1,2-benzisothiazole]
- Therapeutic range, relative (in vivo): 4.44
- selectivity ratio (in vivo): 39000
- LD50 at 24 h (in vivo): 128000 µg/kg
- β1-Sympatholytic action R.A. (relative activity) (cardiac β1-receptors): 3.75
- ED50 (cardiac β1-receptors): 3.28 µg/kg
- β2-Sympatholytic action R.A. (relative activity) ([1]; rats under urethane narcosis): 0.94
- Q [1]: 3.69
- ED50 [1]: 12.1 µg/kg

Structure (SMILES): C#CC(C)(C)NCC(O)COc1cccc2sncc12 (stereo not drawn) [Example 27, 4-[2-Hydroxy-3-(2-methyl-but-3-ynyl-2-amino)-propoxy]-1,2-benzisothiazole]
- Therapeutic range, relative (in vivo): 9.11
- selectivity ratio (in vivo): 80000
- LD50 at 24 h (in vivo): 184000 µg/kg
- β1-Sympatholytic action R.A. (relative activity) (cardiac β1-receptors): 5.35
- ED50 (cardiac β1-receptors): 2.3 µg/kg
- β2-Sympatholytic action R.A. (relative activity) ([1]; rats under urethane narcosis): 1.98
- Q [1]: 2.50
- ED50 [1]: 5.75 µg/kg

Structure (SMILES): COCC(C)NCC(O)COc1cccc2sncc12 (stereo not drawn) [Example 29, 4-[2-Hydroxy-3-(1-methoxy-propyl-2-amino)-propoxy]-1,2-benzisothiazole]
- Therapeutic range, relative (in vivo): 3.11
- selectivity ratio (in vivo): 27300
- LD50 at 24 h (in vivo): 135000 µg/kg
- β1-Sympatholytic action R.A. (relative activity) (cardiac β1-receptors): 2.48
- ED50 (cardiac β1-receptors): 4.95 µg/kg
- β1-sympatholytic activity greater than that of Propranolol (cardiac β1-receptors): 2.5 times
- β2-Sympatholytic action R.A. (relative activity) ([1]; rats under urethane narcosis): 0.26
- Q [1]: 8.90
- ED50 [1]: 44 µg/kg

Structure (SMILES): CCCC(C)NCC(O)COc1cccc2sncc12 (stereo not drawn) [Example 35, 4-[2-Hydroxy-3-(pentyl-2-amino)-propoxy]-1,2-benziso-thiazole]
- Therapeutic range, relative (in vivo): 2.72
- selectivity ratio (in vivo): 23900
- LD50 at 24 h (in vivo): 60300 µg/kg
- β1-Sympatholytic action R.A. (relative activity) (cardiac β1-receptors): 4.88
- ED50 (cardiac β1-receptors): 2.52 µg/kg
- cardiac β1-receptors blocked at doses lower than those required to block β2-receptors (cardiac β1-receptors): 11 times
- β2-Sympatholytic action R.A. (relative activity) ([1]; rats under urethane narcosis): 0.42
- Q [1]: 10.70
- ED50 [1]: 27 µg/kg

Structure (SMILES): CC(C)NCC(O)c1ccc(O)c(O)c1 (stereo not drawn) [Isoproterenol, reference compound]
- reduction of mean pressure of the carotid artery ([1]; Isoproterenol 0.215 μg/kg intravenously, rats under urethane narcosis, average): 30%
